# Experimental data reported in patent US20240384268A1, “Oligonucleotides” (Hudson Institute of Medical Research, priority 2021, published 2024).
# Biological target: T1, human TLR9 (Homo sapiens, UniProt Q9NR96)
# T1 construct: HA; host or cells: 293XL-hTLR9-HA (HEK293)
# T1 sequence (Q9NR96 26-1032): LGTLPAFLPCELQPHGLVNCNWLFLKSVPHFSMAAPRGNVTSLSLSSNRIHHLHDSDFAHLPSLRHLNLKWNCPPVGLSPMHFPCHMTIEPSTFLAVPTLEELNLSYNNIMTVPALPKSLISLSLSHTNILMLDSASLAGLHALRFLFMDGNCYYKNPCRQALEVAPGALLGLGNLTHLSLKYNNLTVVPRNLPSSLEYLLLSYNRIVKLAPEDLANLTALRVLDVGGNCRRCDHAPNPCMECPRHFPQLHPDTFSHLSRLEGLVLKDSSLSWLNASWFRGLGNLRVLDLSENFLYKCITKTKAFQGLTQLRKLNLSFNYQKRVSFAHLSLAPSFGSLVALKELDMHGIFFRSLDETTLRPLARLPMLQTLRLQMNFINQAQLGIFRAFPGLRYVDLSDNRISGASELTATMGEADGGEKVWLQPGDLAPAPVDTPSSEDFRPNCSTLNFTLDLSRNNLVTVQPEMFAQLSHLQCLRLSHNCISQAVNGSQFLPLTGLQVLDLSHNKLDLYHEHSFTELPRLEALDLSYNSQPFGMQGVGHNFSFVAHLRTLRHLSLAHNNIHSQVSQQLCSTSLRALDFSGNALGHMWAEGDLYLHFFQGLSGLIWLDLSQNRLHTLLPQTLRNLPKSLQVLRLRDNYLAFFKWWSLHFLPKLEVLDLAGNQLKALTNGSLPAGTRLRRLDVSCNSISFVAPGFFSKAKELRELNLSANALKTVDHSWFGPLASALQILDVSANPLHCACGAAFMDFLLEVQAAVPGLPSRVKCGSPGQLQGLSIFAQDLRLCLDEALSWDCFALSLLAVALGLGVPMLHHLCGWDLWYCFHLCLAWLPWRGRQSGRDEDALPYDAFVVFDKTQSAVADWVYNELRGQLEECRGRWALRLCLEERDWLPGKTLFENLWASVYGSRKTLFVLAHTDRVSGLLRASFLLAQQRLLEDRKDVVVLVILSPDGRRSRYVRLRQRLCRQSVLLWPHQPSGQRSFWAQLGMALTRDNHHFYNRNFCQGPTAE
# Assay: HEK-TLR9 NF-κB-luciferase reporter, ODN2006 stimulation
# Type: cell-based
# Conditions: ASO 100 nM; relative to ODN2006 only, given as fraction
row,Sequence,TLR9 100 nM (averaged NF-κB-Luciferase level relative to ODN2006 condition)
1,"AAAGGACTGAGGAAAG (antisense; LNA-modified, pattern not given here) [CAMSAP1-6273 LNA KL]",0.780
2,"AACACTTCGTGGGGTC (antisense; LNA-modified, pattern not given here) [HPRT LNA-666 V1]",1.104
3,"AACCCCTTTCACCATC (antisense; LNA-modified, pattern not given here) [MB21D1-689 LNA KL]",0.586
4,"AATCCAACAAAGTCTG (antisense; LNA-modified, pattern not given here) [HPRT LNA-692 KL]",1.050
5,"ACCACGTCTGCTCTAA (antisense; LNA-modified, pattern not given here) [CAMSAP1-1635 LNA KL]",0.842
6,"ACGTTCAGTCCTGTCC (antisense; LNA-modified, pattern not given here) [HPRT LNA-294 V1]",0.427
7,"ACTTCGTGGGGTCCTT (antisense; LNA-modified, pattern not given here) [HPRT LNA-663 V1]",0.377
8,"AGATTTCAGAGCAGCT (antisense; LNA-modified, pattern not given here) [EGFR-4885 LNA KL]",0.848
9,"AGCTTCGAGGCCCCAG (antisense; LNA-modified, pattern not given here) [MB21D1-616 LNA V1]",0.114
10,"AGGACTCCAGATGTTT (antisense; LNA-modified, pattern not given here) [HPRT LNA pos cont]",0.816
11,"AGGCCCTTCGCACTTC (antisense; LNA-modified, pattern not given here) [EGFR-1225 LNA V1]",0.576
12,"AGGTCTTGGCTTCGTG (antisense; LNA-modified, pattern not given here) [MB21D1-524 LNA V1]",0.975
13,"AGTGTTGAGATACTCG (antisense; LNA-modified, pattern not given here) [EGFR-3652 LNA KL]",0.982
14,"ATCTGGCAGCCCATCA (antisense; LNA-modified, pattern not given here) [CTNN2B-2516 LNA V1]",1.248

# Same assay, conditions: ASO 500 nM; relative to ODN2006 only, given as fraction
row,Sequence,TLR9 500 nM (averaged NF-κB-Luciferase level relative to ODN2006 condition)
1,"AAAGGACTGAGGAAAG (antisense; LNA-modified, pattern not given here) [CAMSAP1-6273 LNA KL]",0.185
2,"AACACTTCGTGGGGTC (antisense; LNA-modified, pattern not given here) [HPRT LNA-666 V1]",0.475
3,"AACCCCTTTCACCATC (antisense; LNA-modified, pattern not given here) [MB21D1-689 LNA KL]",0.076
4,"AATCCAACAAAGTCTG (antisense; LNA-modified, pattern not given here) [HPRT LNA-692 KL]",0.529
5,"ACCACGTCTGCTCTAA (antisense; LNA-modified, pattern not given here) [CAMSAP1-1635 LNA KL]",0.162
6,"ACGTTCAGTCCTGTCC (antisense; LNA-modified, pattern not given here) [HPRT LNA-294 V1]",0.198
7,"ACTTCGTGGGGTCCTT (antisense; LNA-modified, pattern not given here) [HPRT LNA-663 V1]",0.377
8,"AGATTTCAGAGCAGCT (antisense; LNA-modified, pattern not given here) [EGFR-4885 LNA KL]",0.438
9,"AGCTTCGAGGCCCCAG (antisense; LNA-modified, pattern not given here) [MB21D1-616 LNA V1]",0.085
10,"AGGACTCCAGATGTTT (antisense; LNA-modified, pattern not given here) [HPRT LNA pos cont]",0.511
11,"AGGCCCTTCGCACTTC (antisense; LNA-modified, pattern not given here) [EGFR-1225 LNA V1]",0.211
12,"AGGTCTTGGCTTCGTG (antisense; LNA-modified, pattern not given here) [MB21D1-524 LNA V1]",0.383
13,"AGTGTTGAGATACTCG (antisense; LNA-modified, pattern not given here) [EGFR-3652 LNA KL]",0.540
14,"ATCTGGCAGCCCATCA (antisense; LNA-modified, pattern not given here) [CTNN2B-2516 LNA V1]",0.603

# Same assay, conditions: HEK-TLR9; 100 nM MOE ASO 45 min; 200 nM ODN2006 (FIG. 30)
row,Sequence,"inhibition of TLR9, 2′MOE ASOs (in words)"
1,"ACACTTCGTGGGGTCCTTTT (antisense; 2'-MOE modified, pattern not given here) [HPRT-663 MOE]",stronger inhibitor than 664/665 and 666 ASOs

# Same assay, conditions: MOE-modified ASO at 100 nM; averaged NF-κB-Luciferase relative to ODN2006 condition
row,Sequence,TLR9 100 nM
1,"ACACTTCGTGGGGTCCTTTT (antisense; 2'-MOE modified, pattern not given here) [HPRT-663 MOE]",0.114

# Same assay, conditions: MOE-modified ASO at 500 nM; averaged NF-κB-Luciferase relative to ODN2006 condition
row,Sequence,TLR9 500 nM
1,"ACACTTCGTGGGGTCCTTTT (antisense; 2'-MOE modified, pattern not given here) [HPRT-663 MOE]",0.226
